Experimental data taken from ChEMBL document CHEMBL3102755, “Diphenylpropane Derivatives as Agonist of PPAR Nuclear Receptors” (ACS Med Chem Lett, 2013).
Activity calls are given as the source filed them. No cut-off for these calls is given here.

Tests used:
[1] = molecular target: T1, Peroxisome proliferator-activated receptor alpha (Homo sapiens, UniProt Q07869); test: Agonist activity at human PPARalpha ligand binding domain expressed in monkey COS7 cells cotransfected with Gal4 by luciferase reporter gene assay; type: cell-based, COS-7
T1 sequence (Q07869 whole entry): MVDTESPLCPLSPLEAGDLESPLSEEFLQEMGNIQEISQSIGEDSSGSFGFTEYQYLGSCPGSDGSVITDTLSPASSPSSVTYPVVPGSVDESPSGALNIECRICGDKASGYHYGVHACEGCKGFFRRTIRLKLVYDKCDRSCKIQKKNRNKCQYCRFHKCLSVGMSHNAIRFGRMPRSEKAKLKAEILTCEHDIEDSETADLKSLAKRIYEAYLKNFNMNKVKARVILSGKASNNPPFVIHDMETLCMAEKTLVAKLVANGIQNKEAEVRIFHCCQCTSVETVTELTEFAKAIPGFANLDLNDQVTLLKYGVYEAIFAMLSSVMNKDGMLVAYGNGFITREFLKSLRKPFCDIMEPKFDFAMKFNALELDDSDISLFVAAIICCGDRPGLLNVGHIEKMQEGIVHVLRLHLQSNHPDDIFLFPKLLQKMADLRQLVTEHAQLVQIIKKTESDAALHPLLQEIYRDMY

[2] = molecular target: T2, Peroxisome proliferator-activated receptor delta (Homo sapiens, UniProt Q03181); test: Agonist activity at human PPARdelta ligand binding domain expressed in monkey COS7 cells cotransfected with Gal4 by luciferase reporter gene assay; type: cell-based, COS-7
T2 sequence (Q03181 whole entry): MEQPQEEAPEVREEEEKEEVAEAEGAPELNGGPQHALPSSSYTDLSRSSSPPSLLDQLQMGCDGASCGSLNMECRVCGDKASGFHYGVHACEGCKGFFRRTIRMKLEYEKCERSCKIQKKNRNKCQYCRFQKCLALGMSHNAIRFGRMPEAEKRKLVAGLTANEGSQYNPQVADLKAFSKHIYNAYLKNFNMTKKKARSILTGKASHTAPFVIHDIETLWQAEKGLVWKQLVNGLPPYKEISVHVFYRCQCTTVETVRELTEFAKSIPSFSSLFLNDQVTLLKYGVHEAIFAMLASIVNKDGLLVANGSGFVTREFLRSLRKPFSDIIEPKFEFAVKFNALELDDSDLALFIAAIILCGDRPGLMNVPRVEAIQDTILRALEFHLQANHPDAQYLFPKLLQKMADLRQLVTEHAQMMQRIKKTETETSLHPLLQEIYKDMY

[3] = molecular target: T3, Peroxisome proliferator-activated receptor gamma (Homo sapiens, UniProt P37231); test: Agonist activity at human PPARgamma ligand binding domain expressed in monkey COS7 cells cotransfected with Gal4 by luciferase reporter gene assay; type: cell-based, COS-7
T3 sequence (P37231 whole entry): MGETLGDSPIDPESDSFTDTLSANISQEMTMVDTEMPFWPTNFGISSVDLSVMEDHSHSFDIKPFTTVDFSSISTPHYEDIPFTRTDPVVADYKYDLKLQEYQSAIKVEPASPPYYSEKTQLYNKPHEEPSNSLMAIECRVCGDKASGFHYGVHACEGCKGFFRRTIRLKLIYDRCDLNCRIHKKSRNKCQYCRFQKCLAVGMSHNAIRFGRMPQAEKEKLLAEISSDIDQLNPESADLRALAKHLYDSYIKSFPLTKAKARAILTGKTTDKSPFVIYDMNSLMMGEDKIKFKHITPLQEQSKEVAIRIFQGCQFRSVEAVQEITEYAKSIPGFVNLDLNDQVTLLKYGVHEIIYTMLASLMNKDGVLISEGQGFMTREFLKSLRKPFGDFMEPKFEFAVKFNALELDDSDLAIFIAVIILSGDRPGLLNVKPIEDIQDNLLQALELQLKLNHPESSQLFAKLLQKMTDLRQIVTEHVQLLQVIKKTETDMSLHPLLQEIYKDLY

Mus musculus [4] = test: Cognitive enhancing effect in APPPS1 transgenic C57BL/6J mouse model at 1 to 10 mg/kg for 60 days by Morris-Water maze assay; type: functional, organism-based
Mus musculus [5] = test: Antialzheimer activity in APPPS1 transgenic C57BL/6J mouse model assessed as decrease in beta-amyloid accumulation in brain at 1 to 10 mg/kg; type: functional, organism-based
[6] = Ratio of AUC (0 to 24 hrs) in brain to plasma in mouse at 2 mg/kg, iv and 10 mg/kg, po; type: ADME, organism-based; settings: read-out: BPR

Row | EC50 [1] [nM] | EC50 [2] [nM] | EC50 [3] [nM] | Kp [6] | EC50 ([3]; cos-7) [nM] | SMILES | Activity (Mus musculus [4]) | Activity (Mus musculus [5])
1 | 100 | 122 | 23 | – | – | Cc1cc(C2CC2C(OC(=O)c2ccccc2)c2ccc(OC(F)(F)F)cc2)cc(C)c1OC(C)(C)C(=O)O (single isomer, unassigned; diastereomer 2) | – | –
2 | 21 | 79 | 116 | – | – | Cc1cc(C2CC2C(OC(=O)c2ccccc2)c2ccc(OC(F)(F)F)cc2)cc(C)c1OC(C)(C)C(=O)O (single isomer, unassigned; diastereomer 1) | – | –
3 | – | – | – | 0.37 | 16 | COC(c1ccc(OC(F)(F)F)cc1)C1CC1c1cc(C)c(OC(C)(C)C(=O)O)c(C)c1 (single isomer, unassigned; enantiomer 1) | Active | Active
